According to patent publication US20190064177A1, “INCORPORATING COMPETITIVE BINDING INFORMATION INTO MOLECULAR ARRAY ANALYSIS TO GENERATE FUNCTION NETWORKS OF INTERACTIONS” (ARIZONA BOARD OF REGENTS ON BEHALF OF ARIZONA STATE …, priority 2017, published 2019):

Each sequence was assayed on diaphorase (assay: fluorescently labeled diaphorase binding to peptide array with or without excess FAD). Details: 1 micromolar labeled diaphorase, excess FAD present; 65535 is detector saturation.
Description: Measurements were performed in which diaphorase was bound to an array of about 126,000 unique sequences. The sequences were chosen simply to cover sequence space. 16 of the natural 20 amino acids were used to make up these sequences with C, I, M and T omitted. The diaphorase was fluorescently labeled and each peptide sequence feature was scanned and fluorescence recorded on the array. Diaphorase bound tightly to some peptides and not at all to others. Two different concentrations of diaphorase were used, 1 and 10 micromolar, and the diaphorase was either bound in the presence of excess FAD or not. […] Indeed the Pearson correlation coefficient between w/ and w/o FAD was >0.97, which actually speaks to the reproducibility of this dataset. However, there are some differences as shown on the scatter plot of FIG. 1. When one takes a ratio of the binding without FAD and the binding with FAD, one finds the following top 30 ratios (Table 1): Note that all these sequences end with a GSG linker sequence. Because there are two concentrations, one can easily check for consistency. Note that 65535 is detector saturation, so one has to ignore those values. For this reason, the lower concentration is used most of the time. […] It appears that this was some kind of error and was ignored in subsequent analysis. A similar conclusion can be made with the 7th highest value. Looking at the sequences, RW or at least R or K followed by a nonpolar or aromatic amino acid at the N-terminus. This is interesting as FAD is negatively charged, though the adenine in FAD looks a bit like tryptophan (see FIG. 2).

Row | 1 microM FAD (array fluorescence of bound diaphorase) | Sequence
1 | 3162 | RAQYAQYLFGGSG [array peptide with C-terminal GSG linker]
2 | 2420 | EAVQKLLFSGSG [array peptide with C-terminal GSG linker]
3 | 2100.75 | YSALFGLQEDGSG [array peptide with C-terminal GSG linker]
4 | 6762.5 | YRPYGPVYNGGSG [array peptide with C-terminal GSG linker]
5 | 3433.25 | WLDLGVFPYQHLGSG [array peptide with C-terminal GSG linker]
6 | 1489.75 | YRFQSGLPAKDGSG [array peptide with C-terminal GSG linker]
7 | 5147 | KNRPYNKDLEDGSG [array peptide with C-terminal GSG linker]
8 | 4688.5 | YVWGLELSGGSG [array peptide with C-terminal GSG linker]
9 | 4146.5 | YRLNLKHPVGGSG [array peptide with C-terminal GSG linker]
10 | 2470 | FQFGKVVSDGSG [array peptide with C-terminal GSG linker]
11 | 4477 | RQAYLFGGSG [array peptide with C-terminal GSG linker]
12 | 2525.5 | PRSFGYNNVGGSG [array peptide with C-terminal GSG linker]
13 | 14421.5 | RPLQVQRGGSG [array peptide with C-terminal GSG linker]
14 | 2460 | RQYQKHSYAKFSGSG [array peptide with C-terminal GSG linker]

Same assay, conditions: 1 micromolar labeled diaphorase, no FAD; 65535 is detector saturation

Row | 1 micro no FAD (array fluorescence of bound diaphorase) | Sequence
15 | 8721.5 | RAQYAQYLFGGSG [array peptide with C-terminal GSG linker]
16 | 1457.5 | EAVQKLLFSGSG [array peptide with C-terminal GSG linker]
17 | 1225.5 | YSALFGLQEDGSG [array peptide with C-terminal GSG linker]
18 | 18709.5 | YRPYGPVYNGGSG [array peptide with C-terminal GSG linker]
19 | 2202 | WLDLGVFPYQHLGSG [array peptide with C-terminal GSG linker]
20 | 4041.25 | YRFQSGLPAKDGSG [array peptide with C-terminal GSG linker]
21 | 733.25 | KNRPYNKDLEDGSG [array peptide with C-terminal GSG linker]
22 | 2607.5 | YVWGLELSGGSG [array peptide with C-terminal GSG linker]
23 | 12652.75 | YRLNLKHPVGGSG [array peptide with C-terminal GSG linker]
24 | 1574.5 | FQFGKVVSDGSG [array peptide with C-terminal GSG linker]
25 | 14479.75 | RQAYLFGGSG [array peptide with C-terminal GSG linker]
26 | 6842.5 | PRSFGYNNVGGSG [array peptide with C-terminal GSG linker]
27 | 5406 | RPLQVQRGGSG [array peptide with C-terminal GSG linker]
28 | 6757 | RQYQKHSYAKFSGSG [array peptide with C-terminal GSG linker]

Same assay, conditions: 10 micromolar labeled diaphorase, excess FAD present; 65535 is detector saturation

Row | 10 microM FAD (array fluorescence of bound diaphorase) | Sequence
29 | 55433.5 | RAQYAQYLFGGSG [array peptide with C-terminal GSG linker]
30 | 17702.75 | EAVQKLLFSGSG [array peptide with C-terminal GSG linker]
31 | 16872.25 | YSALFGLQEDGSG [array peptide with C-terminal GSG linker]
32 | 65535 | YRPYGPVYNGGSG [array peptide with C-terminal GSG linker]
33 | 33610.5 | WLDLGVFPYQHLGSG [array peptide with C-terminal GSG linker]
34 | 20226.25 | YRFQSGLPAKDGSG [array peptide with C-terminal GSG linker]
35 | 2589.25 | KNRPYNKDLEDGSG [array peptide with C-terminal GSG linker]
36 | 36320 | YVWGLELSGGSG [array peptide with C-terminal GSG linker]
37 | 56689 | YRLNLKHPVGGSG [array peptide with C-terminal GSG linker]
38 | 20187.75 | FQFGKVVSDGSG [array peptide with C-terminal GSG linker]
39 | 64033.5 | RQAYLFGGSG [array peptide with C-terminal GSG linker]
40 | 40495.5 | PRSFGYNNVGGSG [array peptide with C-terminal GSG linker]
41 | 41059.5 | RPLQVQRGGSG [array peptide with C-terminal GSG linker]
42 | 27275.5 | RQYQKHSYAKFSGSG [array peptide with C-terminal GSG linker]

Same assay, conditions: 10 micromolar labeled diaphorase, no FAD; 65535 is detector saturation

Row | 10 microM no FAD (array fluorescence of bound diaphorase) | Sequence
43 | 65535 | RAQYAQYLFGGSG [array peptide with C-terminal GSG linker]
44 | 5389.5 | EAVQKLLFSGSG [array peptide with C-terminal GSG linker]
45 | 8529 | YSALFGLQEDGSG [array peptide with C-terminal GSG linker]
46 | 65535 | YRPYGPVYNGGSG [array peptide with C-terminal GSG linker]
47 | 25700.5 | WLDLGVFPYQHLGSG [array peptide with C-terminal GSG linker]
48 | 50316.25 | YRFQSGLPAKDGSG [array peptide with C-terminal GSG linker]
49 | 2522.5 | KNRPYNKDLEDGSG [array peptide with C-terminal GSG linker]
50 | 17286.5 | YVWGLELSGGSG [array peptide with C-terminal GSG linker]
51 | 65535 | YRLNLKHPVGGSG [array peptide with C-terminal GSG linker]
52 | 12735.5 | FQFGKVVSDGSG [array peptide with C-terminal GSG linker]
53 | 65535 | RQAYLFGGSG [array peptide with C-terminal GSG linker]
54 | 65535 | PRSFGYNNVGGSG [array peptide with C-terminal GSG linker]
55 | 53243 | RPLQVQRGGSG [array peptide with C-terminal GSG linker]
56 | 57203.5 | RQYQKHSYAKFSGSG [array peptide with C-terminal GSG linker]

Same assay, conditions: ratio of binding without FAD to binding with FAD, 1 micromolar diaphorase

Row | 1 microM noFAD/FAD | Sequence
57 | 2.758 | RAQYAQYLFGGSG [array peptide with C-terminal GSG linker]
58 | 0.6023 | EAVQKLLFSGSG [array peptide with C-terminal GSG linker]
59 | 0.5834 | YSALFGLQEDGSG [array peptide with C-terminal GSG linker]
60 | 2.767 | YRPYGPVYNGGSG [array peptide with C-terminal GSG linker]
61 | 0.6414 | WLDLGVFPYQHLGSG [array peptide with C-terminal GSG linker]
62 | 2.713 | YRFQSGLPAKDGSG [array peptide with C-terminal GSG linker]
63 | 0.1425 | KNRPYNKDLEDGSG [array peptide with C-terminal GSG linker]
64 | 0.5561 | YVWGLELSGGSG [array peptide with C-terminal GSG linker]
65 | 3.051 | YRLNLKHPVGGSG [array peptide with C-terminal GSG linker]
66 | 0.6374 | FQFGKVVSDGSG [array peptide with C-terminal GSG linker]
67 | 3.234 | RQAYLFGGSG [array peptide with C-terminal GSG linker]
68 | 2.709 | PRSFGYNNVGGSG [array peptide with C-terminal GSG linker]
69 | 0.3749 | RPLQVQRGGSG [array peptide with C-terminal GSG linker]
70 | 2.747 | RQYQKHSYAKFSGSG [array peptide with C-terminal GSG linker]

Same assay, conditions: ratio of binding without FAD to binding with FAD, 10 micromolar diaphorase

Row | 10 microM noFAD/FAD | Sequence
71 | 1.182 | RAQYAQYLFGGSG [array peptide with C-terminal GSG linker]
72 | 0.3044 | EAVQKLLFSGSG [array peptide with C-terminal GSG linker]
73 | 0.5055 | YSALFGLQEDGSG [array peptide with C-terminal GSG linker]
74 | 1 | YRPYGPVYNGGSG [array peptide with C-terminal GSG linker]
75 | 0.7647 | WLDLGVFPYQHLGSG [array peptide with C-terminal GSG linker]
76 | 2.488 | YRFQSGLPAKDGSG [array peptide with C-terminal GSG linker]
77 | 0.9742 | KNRPYNKDLEDGSG [array peptide with C-terminal GSG linker]
78 | 0.4759 | YVWGLELSGGSG [array peptide with C-terminal GSG linker]
79 | 1.156 | YRLNLKHPVGGSG [array peptide with C-terminal GSG linker]
80 | 0.6309 | FQFGKVVSDGSG [array peptide with C-terminal GSG linker]
81 | 1.023 | RQAYLFGGSG [array peptide with C-terminal GSG linker]
82 | 1.618 | PRSFGYNNVGGSG [array peptide with C-terminal GSG linker]
83 | 1.297 | RPLQVQRGGSG [array peptide with C-terminal GSG linker]
84 | 2.097 | RQYQKHSYAKFSGSG [array peptide with C-terminal GSG linker]

Same assay, conditions: ratio without/with FAD calculated from measured binding values, 1 micromolar diaphorase

Row | Meas. ratio | Sequence
85 | 2.76 | RAQYAQYLFGGSG [array peptide with C-terminal GSG linker]
86 | 0.60 | EAVQKLLFSGSG [array peptide with C-terminal GSG linker]
87 | 0.58 | YSALFGLQEDGSG [array peptide with C-terminal GSG linker]
88 | 2.77 | YRPYGPVYNGGSG [array peptide with C-terminal GSG linker]
89 | 0.64 | WLDLGVFPYQHLGSG [array peptide with C-terminal GSG linker]
90 | 2.71 | YRFQSGLPAKDGSG [array peptide with C-terminal GSG linker]
91 | 0.14 | KNRPYNKDLEDGSG [array peptide with C-terminal GSG linker]
92 | 0.56 | YVWGLELSGGSG [array peptide with C-terminal GSG linker]
93 | 3.05 | YRLNLKHPVGGSG [array peptide with C-terminal GSG linker]
94 | 0.64 | FQFGKVVSDGSG [array peptide with C-terminal GSG linker]
95 | 3.23 | RQAYLFGGSG [array peptide with C-terminal GSG linker]
96 | 2.71 | PRSFGYNNVGGSG [array peptide with C-terminal GSG linker]
97 | 0.37 | RPLQVQRGGSG [array peptide with C-terminal GSG linker]
98 | 2.75 | RQYQKHSYAKFSGSG [array peptide with C-terminal GSG linker]
